Results: PMC6320288 (Neuroscience letters, 2018)

Columns and labels:
rat P2X4R (rP2X4R) = biological target: T1, rat P2X4R (rP2X4R) (Rattus norvegicus, UniProt P51577); assay: cell-based
T1 sequence (P51577 1-388): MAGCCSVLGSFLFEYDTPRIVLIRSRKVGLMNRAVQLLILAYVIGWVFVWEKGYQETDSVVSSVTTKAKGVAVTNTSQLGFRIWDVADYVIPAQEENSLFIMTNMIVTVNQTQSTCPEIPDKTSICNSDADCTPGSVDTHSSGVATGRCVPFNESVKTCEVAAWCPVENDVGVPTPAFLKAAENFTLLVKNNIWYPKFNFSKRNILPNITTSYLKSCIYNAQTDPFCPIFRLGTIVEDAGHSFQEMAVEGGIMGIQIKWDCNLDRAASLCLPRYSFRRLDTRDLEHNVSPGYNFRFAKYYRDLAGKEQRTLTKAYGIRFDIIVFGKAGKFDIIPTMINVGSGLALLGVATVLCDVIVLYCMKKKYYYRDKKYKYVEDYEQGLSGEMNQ

rat P2X3R = biological target: T2, rat P2X3R (Rattus norvegicus, UniProt P49654); assay: whole-cell patch clamp in transfected HEK293 cells; type: cell-based; conditions: HEK293, read-out: % inhibition at 10 μM
T2 sequence (P49654 1-397): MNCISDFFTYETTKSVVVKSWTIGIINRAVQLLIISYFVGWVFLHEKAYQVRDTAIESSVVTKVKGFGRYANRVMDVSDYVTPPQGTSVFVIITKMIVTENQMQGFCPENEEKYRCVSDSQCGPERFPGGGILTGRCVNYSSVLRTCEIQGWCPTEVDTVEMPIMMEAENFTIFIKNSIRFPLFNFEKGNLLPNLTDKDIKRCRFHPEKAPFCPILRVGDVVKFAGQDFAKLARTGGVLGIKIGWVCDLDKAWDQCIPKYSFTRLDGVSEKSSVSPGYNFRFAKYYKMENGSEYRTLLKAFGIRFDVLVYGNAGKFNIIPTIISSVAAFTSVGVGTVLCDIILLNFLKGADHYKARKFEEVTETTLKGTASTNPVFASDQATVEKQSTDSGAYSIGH

| Structure (SMILES) | EC50 (rat P2X4R (rP2X4R)) [µM] | inhibition at 10 µM (rat P2X3R) [%] |
| --- | --- | --- |
| Nc1ncnc2c1ncn2[C@@H]1O[C@H](COP(=O)(O)OP(=O)(O)OP(=O)(O)O)[C@@H](O)[C@H]1O [ATP] | 4.7 ± 1.8 |  |
| O=C1CN=C(c2cccc(Br)c2)c2oc3ccccc3c2N1 [5-BDBD, 5-(3-bromophenyl)-1,3-dihydro-2H-benzofuro[3,2-e]-1,4-diazepin-2-one] |  | 35.9 ± 10.1 |
